Measured values reported in patent US20220257631A1, “THERAPEUTIC RNA FOR OVARIAN CANCER” (BIONTECH SE, priority 2019, published 2022).

Columns and labels:
[1] = Respiratory safety, plethysmography (LPT No. 30283); settings: positive control 30 mg/kg b.w.
[2] = DOTMA biodistribution, LC/MS
antigen-specific T cells = experiment: IFN-γ ELISPOT of splenocytes of i.v. vaccinated A2/DR1 mice; format: in vivo; settings: 30 μg RNA(LIP) i.v., four to five vaccinations
[3] = tested on: CD8+ T cells of healthy donors; experiment: In vitro priming of CD8+ T cells with RBL005.2-transfected autologous mDCs, MHC-dextramer staining; format: cell-based, human; settings: three rounds of weekly stimulation
K562-A2 cells = experiment: TCR specificity test, IFN-γ ELISPOT with K562-A2 cells; format: cell-based, human
human DCs = experiment: IFN-γ secretion of antigen-specific CD8+ T cells co-incubated with RBL005.2-electroporated DCs (Bio-plex); format: cell-based
Experimental: Antigen-specific CD8^+ T cells were co-incubated with DCs transfected with 0.25, 1, 4, or 16 μg […] different amounts of RBL005.2. As negative controls only effectors, or DCs transfected with irrelevant antigen coding RNA were used. Columns indicate means of two donors and biological duplicates.
In addition, we exemplarily tested the ability of the WAREHOUSE RNA drug product RBL005.2 to generate surface-expressed MHC-class I epitopes after electroporation of the RNAs into human DCs. This was determined by co-incubation of the transfected DCs for 24 h with isolated human CD8^+ T cells equipped with the α- and β-chain of a T-cell receptor (TCR) specific for the HLA-A*0201-restricted epitope […] (CLDN691.99). Activation of the antigen-specific cells was analyzed by IFN-γ Bio-plex bead assay (Bio-Rad Laboratories) of the cell culture supernatants. To consider donor variability each of the test items was analyzed using two different donors. RNA of ATM quality was used. The experiments were carried out using up to 16 μg of the RNAs to electroporate the DCs (Study Report No: STR_21591_003).

CC(C[N+](C)(C)C)OC(N)=O.[Cl-] (stereo not drawn) [Carbamyl-β-methylcholine chloride]
Pulmonary parameters [1]: expected alterations

CCCCCCCC/C=C\CCCCCCCCOCC(C[N+](C)(C)C)OCCCCCCCC/C=C\CCCCCCCC (centres unmarked) [DOTMA, 1,2-di-O-octadecenyl-3-trimethylammonium propane]
Organ with highest DOTMA findings ([2]; 60 μg RNA, one or two injections, 24 h): highest DOTMA findings were in the spleen | DOTMA distribution ([2]; single RNA(LIP), 26 μg DOTMA, up to 28 days): predominantly found in spleen and liver | Factor by which DOTMA is lower in other organs/tissues than spleen and liver ([2]; single dose): 10-50

RBL008.1: beta-S-ARCA(D1)-hAg-Kozak-sec-GS-p53-GS-MITD-2hBgUTR-A30L70 mRNA, encodes human p53 (SEQ ID NO: 7)
Antigen-specific T-cell responses (IFN-γ ELISPOT) (antigen-specific T cells): induced antigen-specific T-cell responses in vivo in mice expressing human HLA-molecules.

RBL012.1: beta-S-ARCA(D1)-hAg-Kozak-sec-GS-PRAME-GS-MITD-2hBgUTR-A30L70 mRNA, encodes human PRAME (SEQ ID NO: 11)
Antigen-specific T-cell responses (IFN-γ ELISPOT) (antigen-specific T cells): induced antigen-specific T-cell responses in vivo in mice expressing human HLA-molecules.

B1: RBL005.2: beta-S-ARCA(D1)-hAg-Kozak-CLDN6-2hBgUTR-A30L70 mRNA, encodes human Claudin 6 (SEQ ID NO: 3) (nucleic acid)
chain: GGGCGAACUAGUAUUCUUCUGGUCCCCACAGACUCAGAGAGAACCCGCCACCAUGGCCUCUGCCGGAAUGCAGAUCCUGGGCGUGGUGCUGACCCUGCUGGGCUGGGUGAAUGGCCUGGUGAGCUGUGCCCUGCCCAUGUGGAAGGUGACAGCCUUCAUUGGCAACAGCAUUGUGGUGGCCCAGGUGGUGUGGGAGGGCCUGUGGAUGAGCUGUGUGGUGCAGAGCACAGGCCAGAUGCAGUGCAAGGUGUAUGACAGCCUGCUGGCCCUGCCUCAGGACCUCCAGGCCGCCAGAGCCCUGUGUGUGAUUGCCCUGCUGGUGGCCCUGUUUGGCCUGCUGGUGUACCUGGCUGGAGCCAAGUGCACCACCUGUGUGGAGGAGAAGGACAGCAAGGCCAGACUGGUGCUGACCUCUGGCAUUGUGUUUGUGAUCUCUGGCGUGCUGACCCUGAUCCCUGUGUGCUGGACAGCCCAUGCCAUCAUCAGAGACUUCUACAACCCUCUGGUGGCCGAGGCCCAGAAAAGAGAGCUGGGAGCCAGCCUGUACCUGGGCUGGGCCGCCUCUGGCCUUCUUCUGCUGGGAGGAGGACUGCUGUGCUGCACCUGCCCCUCUGGCGGCAGCCAGGGCCCCAGCCACUACAUGGCCAGAUACAGCACCUCUGCCCCUGCCAUCAGCAGAGGCCCUUCUGAGUACCCCACCAAGAACUAUGUGUGAGGAGGAUCCCCUCGAGAGCUCGCUUUCUUGCUGUCCAAUUUCUAUUAAAGGUUCCUUUGUUCCCUAAGUCCAACUACUAAACUGGGGGAUAUUAUGAAGGGCCUUGAGCAUCUGGAUUCUGCCUAAUAAAAAACAUUUAUUUUCAUUGCUGCGUCGAGAGCUCGCUUUCUUGCUGUCCAAUUUCUAUUAAAGGUUCCUUUGUUCCCUAAGUCCAACUACUAAACUGGGGGAUAUUAUGAAGGGCCUUGAGCAUCUGGAUUCUGCCUAAUAAAAAACAUUUAUUUUCAUUGCUGCGUCGAGACCUGGUCCAGAGUCGCUAGCAAAAAAAAAAAAAAAAAAAAAAAAAAAAAAGCAUAUGACUAAAAAAAAAAAAAAAAAAAAAAAAAAAAAAAAAAAAAAAAAAAAAAAAAAAAAAAAAAAAAAAAAAAAAA
modifications: beta-S-ARCA cap, poly(A); CLDN6 RNA
CD8+ T cells binding HLA-A*02/RBL005.2 91-99 dextramer [3]: 0.462% | Recognition of RBL005.2-transfected K562-A2 cells by isolated TCR (K562-A2 cells): specific recognition | Dose dependency of IFN-γ production (human DCs; 0.25, 1, 4, 16 μg RNA): clear dose dependency | IFN-γ production by antigen-specific CD8+ T cells (human DCs; up to 16 μg RNA electroporated, 24 h, two donors): able to produce IFN-γ | Antigen-specific T-cell responses (IFN-γ ELISPOT) (antigen-specific T cells): induced antigen-specific T-cell responses in vivo in mice expressing human HLA-molecules.
